Entries after “also recorded” stand apart in the source; their conditions may differ.
Assays:
[1] = NMR titration with ferric ions; assay type: binding; settings: pH 4.0, 298 K, FeCl3, precipitate in the NMR tube
Solubility for NMR = assay type: physicochemical; settings: 80% H2O/10% ^2H2O/10% 2H6-DMSO
[2] = Absorption titration with ferric citrate; assay type: binding; settings: by relative association constants
human CCK1 receptor = biological target: T1, human CCK1 receptor (Homo sapiens, UniProt P32238); assay: Receptor binding assay, CCK1 receptor; settings: 1 μM desferrioxamine, COS-7 cells; triplicates, ANOVA
T1 sequence (P32238 1-428): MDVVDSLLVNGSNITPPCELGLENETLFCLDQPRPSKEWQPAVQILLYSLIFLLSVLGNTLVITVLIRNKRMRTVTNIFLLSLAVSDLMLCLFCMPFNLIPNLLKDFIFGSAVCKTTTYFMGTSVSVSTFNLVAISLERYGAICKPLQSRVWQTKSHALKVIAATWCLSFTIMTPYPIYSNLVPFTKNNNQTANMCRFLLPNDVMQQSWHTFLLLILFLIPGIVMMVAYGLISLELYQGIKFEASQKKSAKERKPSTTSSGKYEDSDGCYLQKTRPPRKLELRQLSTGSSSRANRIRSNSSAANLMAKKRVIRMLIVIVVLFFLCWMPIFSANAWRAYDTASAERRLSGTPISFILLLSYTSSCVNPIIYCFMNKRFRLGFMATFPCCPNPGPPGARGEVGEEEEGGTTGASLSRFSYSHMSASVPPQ

human CCK2 receptor = biological target: T2, human CCK2 receptor (Homo sapiens, UniProt P32239); assay: Receptor binding assay, CCK2 receptor; settings: 1 μM desferrioxamine, COS-7 cells; triplicates, ANOVA
T2 sequence (P32239 1-447): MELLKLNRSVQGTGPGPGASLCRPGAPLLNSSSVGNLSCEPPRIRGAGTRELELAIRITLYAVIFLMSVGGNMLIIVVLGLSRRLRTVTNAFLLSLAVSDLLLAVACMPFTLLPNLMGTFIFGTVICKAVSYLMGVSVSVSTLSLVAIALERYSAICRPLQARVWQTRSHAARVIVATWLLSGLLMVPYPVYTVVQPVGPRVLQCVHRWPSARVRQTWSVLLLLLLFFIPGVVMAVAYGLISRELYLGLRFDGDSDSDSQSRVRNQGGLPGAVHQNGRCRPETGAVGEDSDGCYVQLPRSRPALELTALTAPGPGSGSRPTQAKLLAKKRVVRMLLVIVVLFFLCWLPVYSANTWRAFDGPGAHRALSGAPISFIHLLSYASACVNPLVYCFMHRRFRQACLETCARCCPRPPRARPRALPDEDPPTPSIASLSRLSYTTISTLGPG

[3] = tested on: cell proliferation and migration; settings: cited from earlier work
[4] = cited from earlier work
[5] = Absorption spectroscopy titration with ferric chloride; settings: 40 μM peptide, 298 K

**Q.** Which “solubility of Fe^3+-peptide complex (in words)” value [1] does the source give for `CSCC[C@H](NC(=O)[C@H](Cc1ccc(O)cc1)NC(=O)[C@@H](N)CC(=O)O)C(=O)NCC(=O)N[C@@H](Cc1c[nH]c2ccccc12)C(=O)N[C@@H](CCSC)C(=O)N[C@@H](CC(=O)O)C(=O)N[C@@H](Cc1ccccc1)C(N)=O` [CCK8] here?
**A.** formation of an insoluble Fe^3+-peptide complex

**Q.** And the “solubility (in words)” value (Solubility for NMR)?
**A.** required the presence of ^2H6-DMSO (80% H2O/10% ^2H2O/10% 2H6-DMSO) to achieve solubility at 0.23 mM

**Q.** For `O=C(O)CC(O)(CC(=O)O)C(=O)O` [citrate], which “relative Fe^3+ binding (in words)” value [2] is on record?
**A.** binds Fe^3+ ions more tightly than any of the CCK peptides

**Q.** Which “effect on binding of labelled CCK8SO4, CCK1 receptor (in words)” value (human CCK1 receptor) does the source give for `CC(=O)N(O)CCCCCNC(=O)CCC(=O)N(O)CCCCCNC(=O)CCC(=O)N(O)CCCCCN` [desferrioxamine] here?
**A.** no significant effect; also recorded: inability

**Q.** What about the “effect on binding of labelled CCK8SO4, CCK2 receptor (in words)” value (human CCK2 receptor) of the same molecule?
**A.** no significant effect; also recorded: inability

**Q.** And the “effect on biological activity of glycine-extended gastrin (in words)” value ([3]; stimulation of cell proliferation and migration)?
**A.** completely blocked the biological activity of glycine-extended gastrin

**Q.** For `N[C@@H](Cc1ccc(OP(=O)(O)O)cc1)C(=O)O` [phosphotyrosine], which “pKa of the phosphoryl group” value [4] is on record?
**A.** 5.9

**Q.** With CCK4 as the molecule, how does the “absorbance change on addition of ferric chloride, pH 4.0 (in words)” value ([5]; pH 4.0, 275 nm) read?
**A.** no change in the absorbance; also recorded: did not cause any change in absorption

**Q.** And the “absorbance change / binding on addition of ferric chloride, pH 6.5 (in words)” value ([5]; pH 6.5, 275 nm)?
**A.** No evidence of binding of ferric ions; also recorded: no increase in absorbance was seen

**Q.** Which “requirement of ferric ions for biological activity (in words)” value [3] does the source give for “ZGPWLEEEEEAYGWMDFamide [amidated gastrin]” here?
**A.** ferric ions were not required for the biological activity

Source: publication PMC2574882 (The Biochemical journal, 2008)
